Measured values taken from US20030162792A1, “Indole derivatives useful for the treatment of CNS disorders” (H. Lundbeck A/S, priority 2000, published 2003).
Structures can show the parent of a compound that is named as a salt. Where two headings read alike, the source gives them in different places.

Key:
[1] = target: T1, human cloned dopamine D4.2 receptors expressed in CHO-cells (Homo sapiens, UniProt P21917, DEL265-296); assay: Inhibition of the binding of [3H]YM-09151-2 to human dopamine D4.2 receptors; conditions: for D4-bind. % inhibition of binding: at 50 nM
T1 construct: expressed in transfected cells; host or cells: CHO cells
T1 sequence (P21917 with tags, fused parts or gaps DEL265-296): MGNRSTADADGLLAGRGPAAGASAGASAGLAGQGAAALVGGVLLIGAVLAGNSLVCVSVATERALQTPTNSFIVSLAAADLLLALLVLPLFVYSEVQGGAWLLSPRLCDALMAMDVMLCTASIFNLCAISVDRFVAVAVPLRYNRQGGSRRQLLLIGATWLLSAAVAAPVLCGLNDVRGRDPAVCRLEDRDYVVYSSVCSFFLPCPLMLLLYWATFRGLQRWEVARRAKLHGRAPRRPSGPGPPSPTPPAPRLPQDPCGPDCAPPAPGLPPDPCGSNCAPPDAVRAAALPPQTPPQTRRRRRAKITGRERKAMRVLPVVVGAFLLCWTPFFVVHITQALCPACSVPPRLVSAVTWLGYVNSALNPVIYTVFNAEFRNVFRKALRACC
Description: Method modified from NEN Life Science Products, Inc., technical data certificate PC2533-10/96.

5-HT2A receptors = target: T2, 5-HT2A receptors (Rattus norvegicus, UniProt P14842); assay: Inhibition of the binding of [3H]Ketanserin to 5-HT2A receptors
T2 construct: membranes from rat brain (cortex) in vitro; from tissue; host or cells: rat brain cortex membranes
Experimental: Inhibition of the Binding of [^3H]Ketanserin to 5-HT2A Receptors
The compounds were tested with respect to their affinity for 5-HT2A receptors by determining their ability to inhibit the binding of [^3H]Ketanserin (0.50 nM) to membranes from rat brain (cortex) in vitro. Method described in Sanchez et al. Drug Dev. Res. 1991, 22, 239-250.

D4 receptor = target: T3, D4 receptor (Homo sapiens, UniProt P21917); conditions: various in vitro efficacy assays; cited from earlier work
T3 sequence (P21917 1-419): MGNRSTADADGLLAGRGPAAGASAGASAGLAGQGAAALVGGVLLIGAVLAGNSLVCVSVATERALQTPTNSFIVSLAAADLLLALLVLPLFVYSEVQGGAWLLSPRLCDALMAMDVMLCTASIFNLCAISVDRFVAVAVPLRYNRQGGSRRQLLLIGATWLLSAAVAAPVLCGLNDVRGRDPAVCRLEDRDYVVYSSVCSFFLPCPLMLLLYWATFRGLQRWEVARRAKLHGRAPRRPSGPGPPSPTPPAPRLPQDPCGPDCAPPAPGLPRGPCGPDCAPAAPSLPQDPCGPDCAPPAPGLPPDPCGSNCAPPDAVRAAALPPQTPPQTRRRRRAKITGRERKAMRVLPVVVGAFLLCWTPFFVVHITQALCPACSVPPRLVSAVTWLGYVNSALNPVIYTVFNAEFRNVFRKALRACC

[2] = [3H]Ketanserin 0.50 nM, membranes from rat brain (cortex), read-out: 5-HT2A-bind. IC50

T2 sequence (P14842 whole entry): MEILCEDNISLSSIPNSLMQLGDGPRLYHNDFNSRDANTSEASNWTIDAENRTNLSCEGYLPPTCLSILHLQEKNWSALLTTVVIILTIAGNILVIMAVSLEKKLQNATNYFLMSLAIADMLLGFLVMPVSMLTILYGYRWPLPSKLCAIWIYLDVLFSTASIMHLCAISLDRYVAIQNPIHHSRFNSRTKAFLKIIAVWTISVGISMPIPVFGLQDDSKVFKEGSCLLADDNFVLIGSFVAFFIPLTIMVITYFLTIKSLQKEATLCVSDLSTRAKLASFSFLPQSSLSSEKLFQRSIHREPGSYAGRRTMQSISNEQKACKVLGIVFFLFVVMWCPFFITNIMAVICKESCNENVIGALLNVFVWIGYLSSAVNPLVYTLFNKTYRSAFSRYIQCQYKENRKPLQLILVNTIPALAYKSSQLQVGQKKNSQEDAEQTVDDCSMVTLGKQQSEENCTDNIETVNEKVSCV

| Compound | IC50 (5-HT2A receptors; [2]) [nM] | D4-bind. % inhibition of binding ([1]; [3H]YM-09151-2 0.06 nM) | other results |
| --- | --- | --- | --- |
| O=S1(=O)c2cccc3cccc(c23)N1CCCN1CCN(c2ccc3[nH]ccc3c2)CC1 [Compound 1a, 2-{3-[4-(1H-Indol-5-yl)piperazin-1-yl]propan-1-yl}-2H-naphtho[1,8-cd]isothiazole 1,1-dioxide, Hydrochloride] | 0.79 | – | IC50 ([1]; [3H]YM-09151-2 0.06 nM, membranes of CHO cells, read-out: D4-bind. IC50): 1.9 nM |
| Cl.O=S1(=O)c2cccc3cccc(c23)N1CCCN1CCN(c2ccc3cc[nH]c3c2)CC1 [Compound 1b, 2-{3-[4-(1H-Indol-6-yl)piperazin-1-yl]propan-1-yl}-2H-naphtho[1,8-cd]isothiazole 1,1-dioxide, Hydrochloride] | 1.8 | 91% (50 nM) | – |
| O=S1(=O)c2cccc3cccc(c23)N1CCCN1CC=C(c2ccc3[nH]ccc3c2)CC1 [Compound 1c, 2-{3-[4-(1H-Indol-5-yl)-3,6-dihydro-2H-pyridin-1-yl]propan-1-yl}-2H-naphtho[1,8-cd]isothiazole 1,1-dioxide, Hydrochloride] | – | – | IC50 [1]: 0.73 nM; IC50 (5-HT2A receptors): 0.48 nM |
| O=S1(=O)c2cccc3cccc(c23)N1CCCN1CCC(c2ccc3[nH]ccc3c2)CC1 [Compound 1d, Hydrochloride] | 9.2 | 83% (50 nM) | – |
| CC(C)Oc1cccnc1N(C)C1CCN(Cc2ccccc2)CC1 [Compound U-101958] | – | – | Functional activity at D4 receptor (literature) (D4 receptor): partial D4 receptor agonists |
